# From patent US8247211B2, “Glycopeptide antibiotics” (American Cyanamid Company, priority 2001, dated 2012)
# Experiments:
# Test in all cases: In vitro antibacterial evaluation: minimum inhibitory concentration (MIC), broth dilution method
# Format in all cases: cell-based
# Conditions in all cases: 18 hours at 35° C.
# Streptococcus sp. = tested on: Streptococcus sp.
# Procedure, shortened: (§1)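 Values are minimum inhibitory concentrations, meaning the smallest antibiotic concentration that stops growth of the organism. They come from broth dilution in Muller-Hinton II […] per NCCLS guidance (M7-A2), using 5×10^5 CFU/mL and concentrations from 64 to 0.06 μg/mL.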
# Escherichia coli = tested on: Escherichia coli
# Procedure, shortened: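 Following NCCLS approved standard M7-A2, compounds are serially diluted from 64 to 0.06 μg/mL in Muller-Hinton II […] and inoculated at 5×10^5 CFU/mL; the MIC is the minimum concentration at which growth is inhibited.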
# Enterococcus sp. = tested on: Enterococcus sp.
# Procedure, shortened: as §1
# Staphylococcus sp. = tested on: Staphylococcus sp.
# Procedure, shortened: as §1
# [1] = Streptococcus agalactiae (GC 4564)
# [2] = Streptococcus pneumoniae (ATCC 6301)
# [3] = Streptococcus pneumoniae (GC 1894)
# [4] = Streptococcus pneumoniae (GC 4565)
# [5] = Streptococcus pyogenes (GC 4563)
# [6] = broth dilution, inoculum 5×10^5 CFU/mL
# [7] = Enterococcus faecalis (GC 2242)
# [8] = Enterococcus faecalis (GC 2691)
# [9] = Enterococcus faecalis (GC 3059)
smiles,measurement,setting,value
"COc1ccc(COC2C(CO)OC(OC3C(CO)OC(Oc4ccc(CC5NC(=O)C(C(C)c6ccccc6)NC(=O)CNC(=O)C(CO)NC(=O)C(C(O)C6CNC(=N)N6C6OC(CO)C(O)C(O)C6O)NC(=O)C(C(O)C6CNC(=N)N6)NC5=O)cc4)C(O)C3O)C(O)C2O)cc1OCc1ccccc1 (stereo not drawn) [Example 239a, Cyclo[glycyl-β-methylphenylalanyl-O-[4-O-[4-O-[4-methoxy-3-(phenylmethoxy)benzyl]-hexopyranosyl]hexopyranosyl]tyrosyl-3-(2-iminoimidazolidin-4-yl)seryl-3-(3-hexopyranosyl-2-iminoimidazolidin-4-yl)serylseryl]]",MIC Streptococcus agalactiae (GC 4564),Streptococcus sp.; [1],1 µg/mL
same,MIC Streptococcus pneumoniae (ATCC 6301),Streptococcus sp.; [2],0.25 µg/mL
same,MIC Streptococcus pneumoniae (GC 1894),Streptococcus sp.; [3],<0.06 µg/mL
same,MIC Streptococcus pneumoniae (GC 4565),Streptococcus sp.; [4],0.25 µg/mL
same,MIC Streptococcus pyogenes (GC 4563),Streptococcus sp.; [5],2 µg/mL
same,MIC Streptococcus agalactiae (GC 4564),Streptococcus sp.; [6],1 µg/mL
same,MIC Streptococcus pneumoniae (ATCC 6301),Streptococcus sp.; [6],0.25 µg/mL
same,MIC Streptococcus pneumoniae (GC 1894),Streptococcus sp.; [6],<0.06 µg/mL
same,MIC Streptococcus pneumoniae (GC 4565),Streptococcus sp.; [6],0.25 µg/mL
same,MIC Streptococcus pyogenes (GC 4563),Streptococcus sp.; [6],2 µg/mL
same,MIC Escherichia coli (ATCC 25922),Escherichia coli,>64 µg/mL
same,MIC Escherichia coli (GC 4559),Escherichia coli,>64 µg/mL
same,MIC Escherichia coli (GC 4560),Escherichia coli,2 µg/mL
same,MIC Enterococcus avium (GC 4558),Enterococcus sp.,8 µg/mL
same,MIC Enterococcus faecalis (ATCC 29212),Enterococcus sp.,8 µg/mL
same,MIC Enterococcus faecalis (GC 2242),Enterococcus sp.; [7],8 µg/mL
same,MIC Enterococcus faecalis (GC 2691),Enterococcus sp.; [8],8 µg/mL
same,MIC Enterococcus faecalis (GC 3059),Enterococcus sp.; [9],8 µg/mL
same,MIC Enterococcus faecalis (GC 4552),Enterococcus sp.,8 µg/mL
same,MIC Enterococcus faecalis (GC 4553),Enterococcus sp.,8 µg/mL
same,MIC Enterococcus faecalis (GC 4554),Enterococcus sp.,16 µg/mL
same,MIC Enterococcus faecalis (GC 6189),Enterococcus sp.,8 µg/mL
same,MIC Enterococcus faecium (GC 2243),Enterococcus sp.,8 µg/mL
same,MIC Enterococcus faecium (GC 4556),Enterococcus sp.,8 µg/mL
same,MIC Enterococcus faecium (GC 4557),Enterococcus sp.,4 µg/mL
same,MIC Enterococcus faecalis (GC 2242),Enterococcus sp.; [6],8 µg/mL
same,MIC Enterococcus faecalis (GC 2691),Enterococcus sp.; [6],8 µg/mL
same,MIC Enterococcus faecalis (GC 3059),Enterococcus sp.; [6],8 µg/mL
same,MIC Coagulase Negative Staphylococcus (GC 4547),Staphylococcus sp.,2 µg/mL
same,MIC Coagulase Negative Staphylococcus (GC 4548),Staphylococcus sp.,1 µg/mL
same,MIC Coagulase Negative Staphylococcus (GC 4549),Staphylococcus sp.,2 µg/mL
same,MIC Coagulase Negative Staphylococcus (GC 4551),Staphylococcus sp.,2 µg/mL
same,MIC Coagulase Negative Staphylococcus (GC 6257),Staphylococcus sp.,2 µg/mL
same,MIC Staphylococcus aureus (ATCC 29213),Staphylococcus sp.,4 µg/mL
same,MIC Staphylococcus aureus (GC 1131),Staphylococcus sp.,4 µg/mL
same,MIC Staphylococcus aureus (GC 3051),Staphylococcus sp.,2 µg/mL
same,MIC Staphylococcus aureus (GC 3053),Staphylococcus sp.,4 µg/mL
same,MIC Staphylococcus aureus (GC 4541),Staphylococcus sp.,4 µg/mL
same,MIC Staphylococcus aureus (GC 4542),Staphylococcus sp.,4 µg/mL
same,MIC Staphylococcus aureus (GC 4544),Staphylococcus sp.,4 µg/mL
same,MIC Staphylococcus aureus (GC 4545),Staphylococcus sp.,4 µg/mL
same,MIC Staphylococcus aureus-SMITH (GC 4543),Staphylococcus sp.,2 µg/mL
same,MIC Staphylococcus haemolyticus (GC 4546),Staphylococcus sp.,2 µg/mL
"COc1ccc(COCC2OC(OC3C(CO)OC(Oc4ccc(CC5NC(=O)C(C(C)c6ccccc6)NC(=O)CNC(=O)C(CO)NC(=O)C(C(O)C6CNC(=N)N6C6OC(CO)C(O)C(O)C6O)NC(=O)C(C(O)C6CNC(=N)N6)NC5=O)cc4)C(O)C3O)C(O)C(O)C2O)c2ccccc12 (stereo not drawn) [Example 240, Cyclo[glycyl-β-methylphenylalanyl-O-[4-O-[6-O-[(4-methoxy-1-naphthyl)methyl]hexo-pyranosyl]hexopyranosyl]tyrosyl-3-(2-iminoimidazolidin-4-yl)seryl-3-(3-hexopyranosyl-2-iminoimidazolidin-4-yl)serylseryl]]",MIC Streptococcus agalactiae (GC 4564),Streptococcus sp.; [1],0.5 µg/mL
same,MIC Streptococcus pneumoniae (ATCC 6301),Streptococcus sp.; [2],<0.12 µg/mL
same,MIC Streptococcus pneumoniae (GC 1894),Streptococcus sp.; [3],<0.12 µg/mL
same,MIC Streptococcus pneumoniae (GC 4565),Streptococcus sp.; [4],0.25 µg/mL
same,MIC Streptococcus pyogenes (GC 4563),Streptococcus sp.; [5],0.5 µg/mL
same,MIC Streptococcus agalactiae (GC 4564),Streptococcus sp.; [6],0.5 µg/mL
same,MIC Streptococcus pneumoniae (ATCC 6301),Streptococcus sp.; [6],<0.12 µg/mL
same,MIC Streptococcus pneumoniae (GC 1894),Streptococcus sp.; [6],<0.12 µg/mL
same,MIC Streptococcus pneumoniae (GC 4565),Streptococcus sp.; [6],0.25 µg/mL
same,MIC Streptococcus pyogenes (GC 4563),Streptococcus sp.; [6],0.5 µg/mL
same,MIC Escherichia coli (GC 4560),Escherichia coli,2 µg/mL
same,MIC Enterococcus avium (GC 4558),Enterococcus sp.,4 µg/mL
same,MIC Enterococcus faecalis (ATCC 29212),Enterococcus sp.,16 µg/mL
same,MIC Enterococcus faecalis (GC 2242),Enterococcus sp.; [7],16 µg/mL
same,MIC Enterococcus faecalis (GC 2691),Enterococcus sp.; [8],8 µg/mL
same,MIC Enterococcus faecalis (GC 3059),Enterococcus sp.; [9],8 µg/mL
same,MIC Enterococcus faecalis (GC 4552),Enterococcus sp.,16 µg/mL
same,MIC Enterococcus faecalis (GC 4553),Enterococcus sp.,16 µg/mL
same,MIC Enterococcus faecalis (GC 4554),Enterococcus sp.,16 µg/mL
same,MIC Enterococcus faecalis (GC 6189),Enterococcus sp.,8 µg/mL
same,MIC Enterococcus faecium (GC 2243),Enterococcus sp.,16 µg/mL
same,MIC Enterococcus faecium (GC 4556),Enterococcus sp.,16 µg/mL
same,MIC Enterococcus faecium (GC 4557),Enterococcus sp.,2 µg/mL
same,MIC Enterococcus faecalis (GC 2242),Enterococcus sp.; [6],16 µg/mL
same,MIC Enterococcus faecalis (GC 2691),Enterococcus sp.; [6],8 µg/mL
same,MIC Enterococcus faecalis (GC 3059),Enterococcus sp.; [6],8 µg/mL
same,MIC Coagulase Negative Staphylococcus (GC 4547),Staphylococcus sp.,4 µg/mL
same,MIC Coagulase Negative Staphylococcus (GC 4548),Staphylococcus sp.,2 µg/mL
same,MIC Coagulase Negative Staphylococcus (GC 4549),Staphylococcus sp.,2 µg/mL
same,MIC Coagulase Negative Staphylococcus (GC 4551),Staphylococcus sp.,2 µg/mL
same,MIC Coagulase Negative Staphylococcus (GC 6257),Staphylococcus sp.,2 µg/mL
same,MIC Staphylococcus aureus (ATCC 29213),Staphylococcus sp.,4 µg/mL
same,MIC Staphylococcus aureus (GC 1131),Staphylococcus sp.,4 µg/mL
same,MIC Staphylococcus aureus (GC 3051),Staphylococcus sp.,0.5 µg/mL
same,MIC Staphylococcus aureus (GC 3053),Staphylococcus sp.,4 µg/mL
same,MIC Staphylococcus aureus (GC 4541),Staphylococcus sp.,1 µg/mL
same,MIC Staphylococcus aureus (GC 4542),Staphylococcus sp.,2 µg/mL
same,MIC Staphylococcus aureus (GC 4544),Staphylococcus sp.,4 µg/mL
same,MIC Staphylococcus aureus (GC 4545),Staphylococcus sp.,4 µg/mL
same,MIC Staphylococcus aureus-SMITH (GC 4543),Staphylococcus sp.,2 µg/mL
same,MIC Staphylococcus haemolyticus (GC 4546),Staphylococcus sp.,2 µg/mL
"CC(c1ccccc1)C1NC(=O)CNC(=O)C(CO)NC(=O)C(C(O)C2CNC(=N)N2C2OC(CO)C(O)C(O)C2O)NC(=O)C(C(O)C2CNC(=N)N2)NC(=O)C(Cc2ccc(OC3OC(CO)C(OC4OC(COCC=C(c5ccccc5)c5ccccc5)C(O)C(O)C4O)C(O)C3O)cc2)NC1=O (stereo not drawn) [Example 241, Cyclo[glycyl-β-methylphenylalanyl-O-[4-O-[6-O-[3,3-diphenylprop-2-en-1-yl)hexopyranosyl]-hexopyranosyl]tyrosyl-3-(2-iminoimidazolidin-4-yl)seryl-3-(3-hexopyranosyl-2-iminoimidazolidin-4-yl)serylseryl]]",MIC Streptococcus agalactiae (GC 4564),Streptococcus sp.; [1],<0.06 µg/mL
same,MIC Streptococcus pneumoniae (ATCC 6301),Streptococcus sp.; [2],<0.06 µg/mL
same,MIC Streptococcus pneumoniae (GC 1894),Streptococcus sp.; [3],<0.06 µg/mL
same,MIC Streptococcus pneumoniae (GC 4565),Streptococcus sp.; [4],<0.06 µg/mL
same,MIC Streptococcus pyogenes (GC 4563),Streptococcus sp.; [5],<0.06 µg/mL
same,MIC Streptococcus agalactiae (GC 4564),Streptococcus sp.; [6],<0.06 µg/mL
same,MIC Streptococcus pneumoniae (ATCC 6301),Streptococcus sp.; [6],<0.06 µg/mL
same,MIC Streptococcus pneumoniae (GC 1894),Streptococcus sp.; [6],<0.06 µg/mL
same,MIC Streptococcus pneumoniae (GC 4565),Streptococcus sp.; [6],<0.06 µg/mL
same,MIC Streptococcus pyogenes (GC 4563),Streptococcus sp.; [6],<0.06 µg/mL
same,MIC Escherichia coli (ATCC 25922),Escherichia coli,>64 µg/mL
same,MIC Escherichia coli (GC 4559),Escherichia coli,>64 µg/mL
same,MIC Escherichia coli (GC 4560),Escherichia coli,2 µg/mL
same,MIC Enterococcus avium (GC 4558),Enterococcus sp.,4 µg/mL
same,MIC Enterococcus faecalis (ATCC 29212),Enterococcus sp.,4 µg/mL
same,MIC Enterococcus faecalis (GC 2242),Enterococcus sp.; [7],4 µg/mL
same,MIC Enterococcus faecalis (GC 2691),Enterococcus sp.; [8],4 µg/mL
same,MIC Enterococcus faecalis (GC 3059),Enterococcus sp.; [9],2 µg/mL
same,MIC Enterococcus faecalis (GC 4552),Enterococcus sp.,4 µg/mL
same,MIC Enterococcus faecalis (GC 4553),Enterococcus sp.,4 µg/mL
same,MIC Enterococcus faecalis (GC 4554),Enterococcus sp.,4 µg/mL
same,MIC Enterococcus faecalis (GC 6189),Enterococcus sp.,2 µg/mL
same,MIC Enterococcus faecium (GC 2243),Enterococcus sp.,4 µg/mL
same,MIC Enterococcus faecium (GC 4556),Enterococcus sp.,4 µg/mL
same,MIC Enterococcus faecium (GC 4557),Enterococcus sp.,2 µg/mL
same,MIC Enterococcus faecalis (GC 2242),Enterococcus sp.; [6],4 µg/mL
same,MIC Enterococcus faecalis (GC 2691),Enterococcus sp.; [6],4 µg/mL
same,MIC Enterococcus faecalis (GC 3059),Enterococcus sp.; [6],2 µg/mL
same,MIC Coagulase Negative Staphylococcus (GC 4547),Staphylococcus sp.,2 µg/mL
same,MIC Coagulase Negative Staphylococcus (GC 4548),Staphylococcus sp.,1 µg/mL
same,MIC Coagulase Negative Staphylococcus (GC 4549),Staphylococcus sp.,2 µg/mL
same,MIC Coagulase Negative Staphylococcus (GC 4551),Staphylococcus sp.,4 µg/mL
same,MIC Coagulase Negative Staphylococcus (GC 6257),Staphylococcus sp.,2 µg/mL
same,MIC Staphylococcus aureus (ATCC 29213),Staphylococcus sp.,2 µg/mL
same,MIC Staphylococcus aureus (GC 1131),Staphylococcus sp.,2 µg/mL
same,MIC Staphylococcus aureus (GC 3051),Staphylococcus sp.,2 µg/mL
same,MIC Staphylococcus aureus (GC 3053),Staphylococcus sp.,2 µg/mL
same,MIC Staphylococcus aureus (GC 4541),Staphylococcus sp.,2 µg/mL
same,MIC Staphylococcus aureus (GC 4542),Staphylococcus sp.,2 µg/mL
same,MIC Staphylococcus aureus (GC 4544),Staphylococcus sp.,2 µg/mL
same,MIC Staphylococcus aureus (GC 4545),Staphylococcus sp.,2 µg/mL
same,MIC Staphylococcus aureus-SMITH (GC 4543),Staphylococcus sp.,2 µg/mL
same,MIC Staphylococcus haemolyticus (GC 4546),Staphylococcus sp.,2 µg/mL
